According to US20100113517A1, “METHOD FOR THE TREATMENT OF FABRY DISEASE USING PHARMACOLOGICAL CHAPERONES” (AMICUS THERAPEUTICS, INC., priority 2007, published 2010):
Like-named read-outs stand apart in the source and are kept apart here.

Test: Phase I ascending single oral dose study, pharmacokinetics
Type: in vivo, healthy volunteers (human)
Settings: for half-life / Tmax / CL renal / AUC(0-inf) / AUC(0-t) / Cmax: male, human; for half-life / Tmax / AUC(0-inf) / AUC(0-t) / Cmax: plasma; for CL renal / Ae, cumulative percentage of DGJ excreted over the 12-hour postdose period: urine; for AUC(0-inf) / AUC(0-t) / Cmax: geometric mean
Experimental: This example describes a randomized, double blind, placebo controlled Phase I study of ascending single oral dose of DGJ to evaluate the safety, tolerability and pharmacokinetics of DGJ in healthy volunteers.
Study Design and Duration. […] Dose escalation to the next dose level (i.e., next group) proceeded following review of safety and tolerability of the previous group(s). Subjects were housed in the treatment facility from 14 hours prior to dosing until 24 hours after dosing. Meals were controlled by schedule and subjects remained abulatory for 4 hours post drug administration.
Study Population. Subjects were healthy, non-institutionalized, non-smoking male volunteers between 19 and 50 years of age (inclusive) consisting of members of the community at large.
Pharmacokinetic Sampling. Blood samples (10 mL each) were collected in blood collection tubes containing EDTA before dosing and at the following times thereafter: 0.25, 0.5, 0.75, 1, 1.5, 2, 3, 4, 5, 6, 8, 10, 12, 16 and 24 hours. Blood samples were cooled in an ice bath and centrifuged under refrigeration as soon as possible. Plasma samples were divided into two aliquots an dstored at […] pending assay. At the end of the study, all samples were transferred to MDS Pharma Services Analytical Laboratories (Lincoln) for analysis.
Pharmacokinetic parameters were summarised by treatment group using descriptive statistics (arithmetic means, standard deviations, coefficients of variation, sample size, minimum, maximum and median). In addition, geometric means were calculated for AUC0-t, AUCinf and Cmax.

time of peak concentrations, on average (all dose levels (25-675 mg single dose)): approximately 3 hours | increase of AUC and Cmax with dose (doses increased from 25 mg to 225 mg): dose-proportional manner | half-life (oral, 25-675 mg single dose, read-out: mean half-life across all dose levels): 3 to 4.6 h | Tmax (single oral dose 25 mg): 3 h | half-life (single oral dose 25 mg, read-out: t1/2 (converted)): 3.04 h | Tmax (single oral dose 75 mg): 2.92 h | half-life (single oral dose 75 mg, read-out: t1/2 (converted)): 4.05 h | Tmax (single oral dose 225 mg): 3.17 h | half-life (single oral dose 225 mg, read-out: t1/2 (converted)): 4.62 h | Tmax (single oral dose 675 mg): 2.67 h | half-life (single oral dose 675 mg, read-out: t1/2 (converted)): 4.19 h | CL renal (oral, as doses increased from 25 mg to 675 mg, read-out: mean renal clearance): 98.3 to 128 mL/min | CL renal (single oral dose 25 mg, read-out: CLR (converted)): 98.3 mL/min | CL renal (single oral dose 75 mg, read-out: CLR (converted)): 95.5 mL/min | CL renal (single oral dose 225 mg, read-out: CLR (converted)): 126 mL/min | CL renal (single oral dose 675 mg, read-out: CLR (converted)): 128 mL/min | AUC(0-inf) (single oral dose 25 mg): 1130 ng·h/mL | AUC(0-t) (single oral dose 25 mg): 1090 ng·h/mL | Cmax (single oral dose 25 mg): 201 ng/mL | AUC(0-inf) (single oral dose 75 mg): 4730 ng·h/mL | AUC(0-t) (single oral dose 75 mg): 4660 ng·h/mL | Cmax (single oral dose 75 mg): 685 ng/mL | AUC(0-inf) (single oral dose 225 mg): 11400 ng·h/mL | AUC(0-t) (single oral dose 225 mg): 11200 ng·h/mL | Cmax (single oral dose 225 mg): 2000 ng/mL | AUC(0-inf) (single oral dose 675 mg): 35700 ng·h/mL | AUC(0-t) (single oral dose 675 mg): 35300 ng·h/mL | Cmax (single oral dose 675 mg): 6490 ng/mL
Compound: OCC1NCC(O)C(O)C1O (centres unmarked) [DGJ, 1-deoxygalactonojirimycin]
Ae, cumulative percentage of DGJ excreted over the 12-hour postdose period (single oral dose 25 mg): 8.78% | Ae, cumulative percentage of DGJ excreted over the 12-hour postdose period (single oral dose 75 mg): 23.4% | Ae, cumulative percentage of DGJ excreted over the 12-hour postdose period (single oral dose 225 mg): 40.3% | Ae, cumulative percentage of DGJ excreted over the 12-hour postdose period (single oral dose 675 mg): 39.6%
